Our source for the IC50 values is ChEMBL document CHEMBL3886628, “Substituted 3-(biphenyl-3-yl)-4-hydroxy-8-methoxy-1-azaspiro[4.5]dec-3-en-2-one” (2016).

One test concerns the target Acetyl-CoA carboxylase 1 (Homo sapiens, UniProt Q13085). Nature of the test: Typical concentrations were in the range of 1.75 μl.
A further test concerns the target Acetyl-CoA carboxylase 2 (Homo sapiens, UniProt O00763).

“And” between values parts separate entries of the source, which are not always exact repeats. Equal values may be shown once.

Sequence of Acetyl-CoA carboxylase 2 (O00763 whole entry): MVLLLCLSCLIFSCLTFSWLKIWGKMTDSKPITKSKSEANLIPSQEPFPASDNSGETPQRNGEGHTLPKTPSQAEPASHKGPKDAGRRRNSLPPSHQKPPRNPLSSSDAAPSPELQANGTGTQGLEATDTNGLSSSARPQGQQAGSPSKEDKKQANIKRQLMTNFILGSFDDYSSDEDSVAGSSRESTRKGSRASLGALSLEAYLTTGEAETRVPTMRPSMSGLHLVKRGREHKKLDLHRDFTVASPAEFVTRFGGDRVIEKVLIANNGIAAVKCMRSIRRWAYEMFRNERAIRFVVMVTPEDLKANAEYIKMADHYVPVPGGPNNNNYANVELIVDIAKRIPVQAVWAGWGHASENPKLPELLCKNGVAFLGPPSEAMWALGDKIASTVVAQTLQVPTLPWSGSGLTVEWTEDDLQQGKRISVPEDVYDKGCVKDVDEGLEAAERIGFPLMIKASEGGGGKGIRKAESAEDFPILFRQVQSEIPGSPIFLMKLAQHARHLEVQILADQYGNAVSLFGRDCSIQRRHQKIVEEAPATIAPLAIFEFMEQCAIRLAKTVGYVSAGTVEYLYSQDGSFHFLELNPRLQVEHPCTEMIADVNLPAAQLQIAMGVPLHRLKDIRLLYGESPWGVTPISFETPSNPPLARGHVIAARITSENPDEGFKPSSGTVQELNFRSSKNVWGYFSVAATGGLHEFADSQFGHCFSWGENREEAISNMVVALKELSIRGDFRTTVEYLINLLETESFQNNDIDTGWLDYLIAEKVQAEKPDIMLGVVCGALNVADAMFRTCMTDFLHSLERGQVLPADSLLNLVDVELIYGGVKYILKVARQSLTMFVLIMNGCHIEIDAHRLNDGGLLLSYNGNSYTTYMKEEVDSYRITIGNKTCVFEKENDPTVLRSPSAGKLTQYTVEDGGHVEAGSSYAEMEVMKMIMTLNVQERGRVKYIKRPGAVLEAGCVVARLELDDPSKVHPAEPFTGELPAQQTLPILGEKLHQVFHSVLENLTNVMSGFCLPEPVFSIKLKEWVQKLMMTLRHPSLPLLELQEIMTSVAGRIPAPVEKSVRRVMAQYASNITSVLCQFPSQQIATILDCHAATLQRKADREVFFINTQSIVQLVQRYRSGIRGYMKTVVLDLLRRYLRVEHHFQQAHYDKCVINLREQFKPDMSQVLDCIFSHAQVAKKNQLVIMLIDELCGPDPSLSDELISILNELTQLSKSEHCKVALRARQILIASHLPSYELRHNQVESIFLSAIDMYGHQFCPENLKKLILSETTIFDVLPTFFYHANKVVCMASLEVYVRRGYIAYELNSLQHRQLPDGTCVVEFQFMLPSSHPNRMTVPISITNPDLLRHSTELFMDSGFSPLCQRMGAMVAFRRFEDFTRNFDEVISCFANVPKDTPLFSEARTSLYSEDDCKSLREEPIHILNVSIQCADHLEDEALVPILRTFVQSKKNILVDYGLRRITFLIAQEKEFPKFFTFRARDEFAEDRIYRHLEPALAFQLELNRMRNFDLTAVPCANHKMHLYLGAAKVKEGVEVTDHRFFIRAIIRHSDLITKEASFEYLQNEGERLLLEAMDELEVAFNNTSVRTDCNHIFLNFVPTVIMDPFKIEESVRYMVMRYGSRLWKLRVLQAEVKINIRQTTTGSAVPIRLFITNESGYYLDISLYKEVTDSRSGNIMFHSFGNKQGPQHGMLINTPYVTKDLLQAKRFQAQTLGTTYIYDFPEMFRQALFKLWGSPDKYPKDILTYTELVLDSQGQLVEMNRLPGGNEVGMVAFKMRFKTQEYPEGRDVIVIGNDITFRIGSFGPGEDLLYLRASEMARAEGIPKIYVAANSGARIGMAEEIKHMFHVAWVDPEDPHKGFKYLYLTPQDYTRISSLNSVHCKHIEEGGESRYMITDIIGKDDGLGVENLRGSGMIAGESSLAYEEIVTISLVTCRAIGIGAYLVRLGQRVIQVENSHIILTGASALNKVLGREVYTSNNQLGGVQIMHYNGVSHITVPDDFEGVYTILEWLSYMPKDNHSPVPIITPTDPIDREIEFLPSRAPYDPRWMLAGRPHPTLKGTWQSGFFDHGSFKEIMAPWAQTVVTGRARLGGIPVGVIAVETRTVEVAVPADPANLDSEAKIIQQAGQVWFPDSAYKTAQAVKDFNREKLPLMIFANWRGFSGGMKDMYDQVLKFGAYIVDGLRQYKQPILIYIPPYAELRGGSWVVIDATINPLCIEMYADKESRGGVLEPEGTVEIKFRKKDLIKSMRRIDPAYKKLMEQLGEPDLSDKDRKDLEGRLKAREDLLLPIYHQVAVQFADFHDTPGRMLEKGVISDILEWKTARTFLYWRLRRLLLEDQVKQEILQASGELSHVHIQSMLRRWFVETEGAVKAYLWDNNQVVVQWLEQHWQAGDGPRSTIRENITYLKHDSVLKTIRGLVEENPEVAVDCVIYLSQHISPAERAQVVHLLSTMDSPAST

`CO[C@]1(C(F)(F)F)CC[C@]2(CC1)NC(=O)C(c1cc(-c3ccc(Cl)c(F)c3)ccc1C)=C2O`: the IC50 against Acetyl-CoA carboxylase 1 is 92 nM and 119 nM; against Acetyl-CoA carboxylase 2, 2760 nM and 1690 nM and 2010 nM.
As to `CO[C@]1(C(F)(F)F)CC[C@]2(CC1)NC(=O)C(c1cc(-c3ccc(Cl)cc3)ccc1C)=C2O`, the IC50 against Acetyl-CoA carboxylase 1 is 231 nM and 244 nM and 44 nM and 67 nM and 78 nM and 162 nM and 186 nM and 99 nM.
`COC[C@]1(OC)CC[C@@]2(CC1)NC(=O)C(c1cc(-c3ccc(Cl)c(F)c3)ccc1C)=C2O`: at Acetyl-CoA carboxylase 1, the half-maximal inhibitory concentration (IC50) was 104 nM and 133 nM and 84 nM.
